≈ marks a conversion by molar mass, not a printed value.
How the values were obtained:
[1] = test system: S. aureus LAC; experiment: microbe, parasite or virus in culture; format: cell-based; settings: Staphylococcus aureus
[2] = test system: E. coli; experiment: MIC, broth microdilution; format: cell-based; settings: Escherichia coli
[3] = test system: S. aureus LAC; format: cell-based, Staphylococcus aureus; settings: TSA
[4] = test system: K. pneumonia; experiment: MIC, broth microdilution; format: cell-based; settings: Klebsiella pneumoniae, K. pneumonia KPC-KP1
[5] = test system: A. baumannii HUMC1; experiment: Time kill assay in RPMI with or without amino acids; format: cell-based, Acinetobacter baumannii; settings: RPMI alone vs RPMI with amino acids; 8 and 24 hrs
[6] = test system: E. coli JJ1886; format: cell-based, Escherichia coli; settings: TSA

How did the MIC ([1]; MHII) turn out when `CO[C@H]1/C=C/O[C@@]2(C)Oc3c(C)c(O)c4c(c3C2=O)C2=NC3(CCN(CC(C)C)CC3)NC2=C(NC(=O)/C(C)=C\C=C\[C@H](C)[C@H](O)[C@@H](C)[C@@H](O)[C@@H](C)[C@H](OC(C)=O)[C@@H]1C)C4=O` [rifabutin] was run?
Its MIC is 0.012 µg/mL (≈ 0.0142 µM).

And the MIC ([1]; RPMI)?
The MIC was 0.025 µg/mL (≈ 0.0295 µM).

And the MIC ([2]; E. coli DH5a, MHII)?
The MIC was 6.25 µg/mL (≈ 7.38 µM).

And the MIC ([2]; E. coli JJ1886, MHII)?
The MIC was 6.25 µg/mL (≈ 7.38 µM).

What about the MIC ([2]; E. coli JJ1886, RPMI) of the same compound?
Its MIC is 6.25 µg/mL (≈ 7.38 µM).

What about the “Mutation Frequency” value [3] of the same compound?
The value was 1.10E−07.

And the MIC ([4]; MHII)?
The MIC was 25 µg/mL (≈ 29.5 µM).

And the MIC ([4]; RPMI)?
The MIC was 12.5 µg/mL (≈ 14.8 µM).

And the “reduction in CFUs (time kill)” value [5]?
Its value is “greater reduction in CFUs”.

And the “Mutation Frequency” value [6]?
The value was 3.89E−08.

— US20230381157A1, “RIFABUTIN FOR THE TREATMENT OF ACINETOBACTER BAUMANNII” (University of Southern California, priority 2018, published 2023)
